Assay results published in patent publication US20260364057A1, “AMIDE COMPOUND, AND COMPOSITION AND USE THEREOF” (SIMCERE ZAIMING PHARMACEUTICAL CO., LTD., priority 2022, published 2026).

How the values were obtained:
[1] = biological target: T1, Human KIF18A (1-376aa) (Homo sapiens, UniProt Q8NI77); experiment: KIF18A enzyme activity assay (ADP-Glo); type: biochemical; settings: microtubule 50 μg/mL, ATP (Km 70 μM), room temperature, 15 min, read-out: KIF18A inhibitory activity IC50
T1 construct: Human KIF18A (1-376aa) protease used in the experiments; purchased Shanghai Panchao Biotechnology Co., Ltd
T1 sequence (Q8NI77 1-376): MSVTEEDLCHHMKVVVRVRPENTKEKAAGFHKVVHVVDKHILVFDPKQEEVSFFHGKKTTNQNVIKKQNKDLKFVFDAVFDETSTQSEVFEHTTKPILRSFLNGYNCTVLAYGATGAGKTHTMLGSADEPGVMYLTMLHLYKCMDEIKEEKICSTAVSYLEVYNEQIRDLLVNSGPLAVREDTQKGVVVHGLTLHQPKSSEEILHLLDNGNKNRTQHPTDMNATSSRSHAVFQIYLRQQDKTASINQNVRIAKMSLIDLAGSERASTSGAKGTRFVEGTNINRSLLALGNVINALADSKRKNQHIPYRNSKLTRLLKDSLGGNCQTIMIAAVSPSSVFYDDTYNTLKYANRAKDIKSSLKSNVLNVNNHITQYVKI
Method: Test Example 1: KIF18A Enzyme Activity Assay
Based on the ADP-Glo™ Kinase Assay, the ADP amount generated in the reaction was detected to reflect the enzyme activity of KIF18A.
Human KIF18A (1-376aa) […] used in the experiments, expressed by Shanghai Panchao Biotechnology Co., Ltd., was stored at −80 °C (no more than 5 freeze-thaw cycles).
The assay kit (ADP-Glo™ Kinase Assay) was purchased from Promega (Cat. No. V9101) and stored at −30 °C. The kit detects the enzyme activity by measuring ADP generated in enzyme reaction. The KIF18A enzyme and ATP generate ADP. The remaining ATP in this reaction is consumed by the ADP-Glo reagent, while the ADP generated by the KIF18A enzyme reaction is converted back to ATP by the assay reagent. The ATP then reacts with luciferin in the presence of Ultra-Glo™ luciferase, producing luminescence. The luminescent signal is positively correlated with the activity of the KIF18A enzyme.
Compounds were each subjected to 3-fold serial dilution starting from 10 μM to obtain 10 concentration points. The compounds and pure DMSO (control) were pipetted into wells of a 384-well plate using an Echo instrument, and the total volume of compound and DMSO was 100 nL; sample concentrations of gradient dilution were obtained by the instrument based on different ratios. Preparation of a KIF18A enzyme reaction buffer: […], 10 mM MgCl2, 0.01% Pluronic F-68, 1 μM Taxol, and 50 μg/mL Microtubule. KIF18A and the enzyme reaction buffer were mixed, and then the mixed solution was added to the 384-well plate and incubated at room temperature for 15 min. ATP (Km 70 μM) was then added to the mixed solution, and the mixed solution was incubated at room temperature for 15 min. 10 μL of ADP-Glo™ Reagent was well mixed with 10 μL of the mixed solution, and the mixture was incubated at room temperature for 40 min. Finally, 20 μL of ADP-Glo™ Detection Reagent was added, and the mixture was incubated at room temperature for 30 min. The chemiluminescent signal in each well was measured using an Envision plate reader (PerkinElmer, emission wavelength: 400-700 nm). In the experiment, 1 column of wells with no compound and no enzyme (chemiluminescence value was taken as [RLU]background) and 1 column of wells with enzyme but no compound (chemiluminescence value was taken as [RLU]enzyme) were provided. The chemiluminescence value of the compound adding group was taken as [RLU]cpd. The inhibition rate of the compound on […] was calculated according to the following equation: inhibition rate (%)=([RLU]enzyme−[RLU]cpd)/([RLU]enzyme−[RLU]background)×100%, and the inhibitory activity IC50 value of the compound on the enzyme activity was calculated using a four-parameter Logistic Model method. In the following equation, x represents the logarithmic form of the concentration of compound, and f (x) represents an effect value (inhibition rate of enzyme activity at the concentration): F(x)=(A+((B−A)/(1+((C/x)^D)))). A. B, C, and D are four parameters.

[2] = tested on: OVCAR3 cells; experiment: Inhibition of proliferation of OVCAR-3 cells (Cell-Titer Glo); type: cell-based; settings: Homo sapiens, OVCAR-3, 72 h, 3 days, 1000 cells/well
From the text: Test Example 2. Test on Inhibition of Proliferation of OVCAR-3 Cells by Compounds of Present Disclosure
Cell and material: The human ovarian cancer cell line OVCAR3 was purchased from ATCC (Cat. No. HTB-161™), RPMI 1640 medium (Gibco #A1049101), penicillin-streptomycin (Gibco #15140122), and 0.25% Trypsin-EDTA (Gibco #25200056) were purchased from Gibco (U.S.), bovine insulin (Yeasen #40107ES60) was purchased from Yeasen, 384-well plates (Corning #CLS3765) was purchased from Corning (U.S.), and Cell-Titer Glo reagent (Promega #G7568) was purchased from Promega (U.S.).
Cell culture: OVCAR3 cells were cultured in RPMI 1640 complete medium (RPMI 1640 medium containing 20% fetal bovine serum, […] bovine insulin, and 1% penicillin-streptomycin) in an incubator (37 °C, 5% CO2), and the cells could be used in experiments when in the logarithmic growth phase.
Cell proliferation activity test: The Cell-Titer Glo reagent was used to test the compound for inhibition of proliferation of the OVCAR3 cell strain. The compound formulated with DMSO and pure DMSO (control) were each added to a 384-well plate using an Echo instrument; the compound was subjected to 3-fold serial dilution starting from 30 μM to obtain 11 concentration points, and the volume of the compound or DMSO added was 100 nL.
OVCAR3 cells were digested and resuspended in RPMI 1640 complete medium, and the suspension was added to a 384-well plate (1000 cells/50 μL/well) to be well mixed with the compound. The mixture was incubated in an incubator (37 °C, 5% CO2) for 3 days. The Cell-Titer Glo reagent was added at 25 µL/well, and the resulting mixture was well mixed by shaking and then incubated for 10 min. The Cell-Titer Glo readings were measured with a Multimode Plate Reader (brand: PerkinElmer; model: SIC-PV-018).
A negative control group (Bottom) was set, and the negative control group was medium wells with 0.2% DMSO added and was defined as 100% proliferation inhibition; the positive control group (Top) was OVCAR3 cell wells with 0.2% DMSO added.
The percent proliferation inhibition (% Inhibition) was calculated, and the curves were fit using the four-parameter equation, Y=Bottom+(Top−Bottom)/(1+(IC50/X)^HillSlope), to obtain the proliferation inhibition IC50 of the compound. • Percent inhibition: % Inhibition=(1−(Signal−Bottom)/(Top−Bottom))×100%. • Signal: Cell-Titer Glo reading of wells with compound added; • Bottom: Cell-Titer Glo reading of negative control wells; • Top: Cell-Titer Glo reading of positive control wells.

Compound | IC50 [1] | IC50 [2]
O=C(Nc1cccc2c1nc1n2CCC2CC12)c1ccc(NS(=O)(=O)CCO)cc1N1CCC2(CC1)CC2 (stereo not shown) [Compound 71] | < 200 nM | 94.2 nM
CC1CCCCc2nc3c(NC(=O)c4ccc(NS(=O)(=O)CCO)cc4N4CCC5(CC4)CC5)cccc3n21 (stereo not shown) [Compound 68] | < 200 nM | 41.6 nM
O=C(Nc1cccc2c1nc1n2CCC(F)(F)CC1)c1ccc(NS(=O)(=O)CCO)cc1N1CCC2(CC1)CC2 [Compound 49] | < 200 nM | 49.6 nM
O=C(Nc1cc2nccn2c(N2CCC(F)(F)CC2)n1)c1ccc(NS(=O)(=O)CCO)cc1N1CCC2(CC1)CC2 [Compound 14] |  | 77.6 nM
N#Cc1ccc(NC(=O)c2ccc(NS(=O)(=O)CCO)cc2N2CCC3(CC2)CC3)c2nc3n(c12)CC1CC31 (stereo not shown) [Compound 92] | < 200 nM | 48.4 nM
O=C(Nc1cccc2c1nc1n2CC2CC2C1)c1ccc(NS(=O)(=O)CCO)cc1N1CCC2(CC1)CC2 (stereo not shown) [Compound 70] | < 200 nM | 93.3 nM
O=C(Nc1cccc2c1nc1n2C2CCC1C2)c1ccc(NS(=O)(=O)CCO)cc1N1CCC2(CC1)CC2 (stereo not shown) [Compound 72] | < 200 nM | 57.3 nM
O=C(Nc1cc(N2CCC(F)(F)CC2)c2occc2c1)c1ccc(NS(=O)(=O)CCO)cc1N1CCC2(CC1)CC2 [Compound 45] | < 200 nM | 6.65 nM
O=C(Nc1cccc2c1nc1n2CCOC1)c1ccc(NS(=O)(=O)CCO)cc1N1CCC2(CC1)CC2 [Compound 34] | < 200 nM | 22.8 nM
O=C(Nc1cccc2c1nc1n2CC2C1C2(F)F)c1ccc(NS(=O)(=O)CCO)cc1N1CCC2(CC1)CC2 (stereo not shown) [Compound 86] | < 200 nM | 6.5 nM
CC1OCCn2c1nc1c(NC(=O)c3ccc(NS(=O)(=O)CCO)cc3N3CCC4(CC3)CC4)cccc12 (stereo not shown) [Compound 56] | < 200 nM | 31.2 nM
O=C(Nc1cccc2c1nc1n2CC2CCC1O2)c1ccc(NS(=O)(=O)CCO)cc1N1CCC2(CC1)CC2 (stereo not shown) [Compound 40] | < 200 nM | 36.6 nM
Cn1cc(NC(=O)c2ccc(NS(=O)(=O)CCO)cc2N2CCC3(CC2)CC3)nc(N2CCC(F)(F)CC2)c1=O [Compound 58] | < 200 nM | 8 nM
O=C(Nc1cccc2c1nc1n2C2CCC1OC2)c1ccc(NS(=O)(=O)CCO)cc1N1CCC2(CC1)CC2 (stereo not shown) [Compound 77] | < 200 nM | 25.4 nM
O=C(Nc1cc2c(c3c1nc1n3CCCC1)OCC2)c1ccc(NS(=O)(=O)CCO)cc1N1CCC2(CC1)CC2 [Compound 42] | < 200 nM | 26.5 nM
O=C(Nc1cc2ccoc2c(N2CCC(F)(F)CC2)n1)c1ccc(NS(=O)(=O)CCO)cc1N1CCC2(CC1)CC2 [Compound 106] | < 200 nM | 15.7 nM
